Results on 4 cell lines are retold here after the supplement of paper PMC10307832.

Common to all, as to test: relative viability (nuclei count vs DMSO), 5 days (fraction); higher = more cells survive
Compound in test [1]: CN[C@@H]1C[C@H]2O[C@@](C)([C@@H]1OC)n1c3ccccc3c3c4c(c5c6ccccc6n2c5c31)C(=O)NC4 [Staurosporine] + CC(C)C[C@H](NC(=O)[C@H](Cc1ccccc1)NC(=O)c1cnccn1)B(O)O [Bortezomib] (partner 0.002 µM)
The method in brief:
(§1)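 Lung cancer cell lines, seeded in 1536-well plates, were treated the following day by pin tool with a single drug or with five library-drug doses (not always all listed) in √10 steps on top of a fixed anchor-drug dose. Cells were fixed and nuclei stained in one step after 5 days, and nuclei were counted. Relative viability is the nuclei count for treated wells divided by that for vehicle wells, reported as medians of duplicate plates.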

Compound in the test “Sulindac + Vorinostat”: CC1=C(CC(=O)O)c2cc(F)ccc2/C1=C\c1ccc([S+](C)[O-])cc1 [Sulindac] + O=C(CCCCCCC(=O)Nc1ccccc1)NO [Vorinostat] (partner 1 µM)
The method in brief:
as §1

Compound in the test “Sulindac + AZD7762”: CC1=C(CC(=O)O)c2cc(F)ccc2/C1=C\c1ccc([S+](C)[O-])cc1 [Sulindac] + NC(=O)Nc1cc(-c2cccc(F)c2)sc1C(=O)N[C@H]1CCCNC1 [AZD7762] (partner 0.2 µM)
The method in brief:
as §1

Compound in test [2]: CN[C@@H]1C[C@H]2O[C@@](C)([C@@H]1OC)n1c3ccccc3c3c4c(c5c6ccccc6n2c5c31)C(=O)NC4 [Staurosporine] + Cc1nc(NC(=O)N2CCC[C@H]2C(N)=O)sc1-c1ccnc(C(C)(C)C(F)(F)F)c1 [Alpelisib] (partner 2 µM)
The essentials:
as §1

Regarding NCI-H3122, the relative viability in test [1] (first compound 0.005 µM) came to 1.04; in test [1] (first compound 0.01581 µM), 0.355; in test [1] (first compound 0.05 µM) it was 0.947; in test [1] (first compound 0.1581 µM), 0.821; in test [1] (first compound 0.5 µM) it was 0.362; in the test with Sulindac + Vorinostat (first compound 0.08 µM), 0.98. In addition, the relative viability is 0.752 with Sulindac + Vorinostat (first compound 0.253 µM); 0.762 in the test with Sulindac + Vorinostat (first compound 0.8 µM); 0.964 with Sulindac + Vorinostat (first compound 2.53 µM); 1.13 with Sulindac + Vorinostat (first compound 8 µM); 1.2 in the test with Sulindac + AZD7762 (first compound 0.08 µM); 1.08 with Sulindac + AZD7762 (first compound 0.253 µM). The relative viability with Sulindac + AZD7762 (first compound 0.8 µM) is 1.01; with Sulindac + AZD7762 (first compound 2.53 µM), 0.968; with Sulindac + AZD7762 (first compound 8 µM) it was 0.947; in test [2] (first compound 0.005 µM), 1.07; in test [2] (first compound 0.01581 µM) it was 0.302; in test [2] (first compound 0.05 µM) it was 0.758. Besides, the results for the relative viability in test [2] (first compound 0.1581 µM) and in test [2] (first compound 0.5 µM) were 0.209 and 0.217, respectively.
As for PC-3 [JPC-3], the relative viability in test [1] (first compound 0.005 µM) worked out at 0.866; in test [1] (first compound 0.05 µM), 0.511; in test [1] (first compound 0.1581 µM), 0.275; in test [1] (first compound 0.5 µM), 0.316; in the test with Sulindac + Vorinostat (first compound 0.08 µM), 0.839; in the test with Sulindac + Vorinostat (first compound 0.253 µM) it was 0.786. The relative viability was found to be 0.647 in the test with Sulindac + Vorinostat (first compound 0.8 µM); 0.778 in the test with Sulindac + Vorinostat (first compound 2.53 µM); 0.967 with Sulindac + Vorinostat (first compound 8 µM); 0.855 in the test with Sulindac + AZD7762 (first compound 0.08 µM); 0.805 with Sulindac + AZD7762 (first compound 0.253 µM); 0.697 in the test with Sulindac + AZD7762 (first compound 0.8 µM). For the same cell line, the relative viability was found to be 0.715 with Sulindac + AZD7762 (first compound 2.53 µM); 1.06 with Sulindac + AZD7762 (first compound 8 µM); 1.05 in test [2] (first compound 0.005 µM); 0.638 in test [2] (first compound 0.05 µM); 0.508 in test [2] (first compound 0.1581 µM); 0.39 in test [2] (first compound 0.5 µM).
Turning to PC-14, the relative viability in test [1] (first compound 0.005 µM) stood at 0.838; in test [1] (first compound 0.01581 µM), 0.428; in test [1] (first compound 0.05 µM), 0.293; in test [1] (first compound 0.1581 µM), 0.0723; in test [1] (first compound 0.5 µM), 0.065; with Sulindac + Vorinostat (first compound 0.08 µM), 0.873. Besides, the relative viability was found to be 0.9 with Sulindac + Vorinostat (first compound 0.253 µM); 0.629 in the test with Sulindac + Vorinostat (first compound 0.8 µM); 0.645 with Sulindac + Vorinostat (first compound 2.53 µM); 0.855 with Sulindac + Vorinostat (first compound 8 µM); 0.377 in the test with Sulindac + AZD7762 (first compound 0.08 µM); 0.315 with Sulindac + AZD7762 (first compound 0.253 µM). Further, the relative viability turned out to be 0.35 with Sulindac + AZD7762 (first compound 0.8 µM); 0.284 in the test with Sulindac + AZD7762 (first compound 2.53 µM); 0.364 with Sulindac + AZD7762 (first compound 8 µM); 0.693 in test [2] (first compound 0.005 µM); 0.452 in test [2] (first compound 0.01581 µM); 0.172 in test [2] (first compound 0.05 µM). Also, the relative viability in test [2] (first compound 0.1581 µM) was found to be 0.0738; in test [2] (first compound 0.5 µM) it was 0.0496.
RERF-LC-KJ: the relative viability in test [1] (first compound 0.005 µM) is 1.15; in test [1] (first compound 0.01581 µM), 0.926; in test [1] (first compound 0.05 µM), 0.674; in test [1] (first compound 0.1581 µM), 0.322; in test [1] (first compound 0.5 µM), 0.242; with Sulindac + Vorinostat (first compound 0.08 µM) it was 0.687. For the same cell line, the relative viability was found to be 0.823 with Sulindac + Vorinostat (first compound 0.253 µM); 0.597 with Sulindac + Vorinostat (first compound 0.8 µM); 0.78 with Sulindac + Vorinostat (first compound 2.53 µM); 0.734 with Sulindac + Vorinostat (first compound 8 µM); 1.41 in the test with Sulindac + AZD7762 (first compound 0.08 µM); 1.18 in the test with Sulindac + AZD7762 (first compound 0.253 µM). Also, the relative viability with Sulindac + AZD7762 (first compound 0.8 µM) was found to be 0.632; with Sulindac + AZD7762 (first compound 2.53 µM), 0.993; with Sulindac + AZD7762 (first compound 8 µM), 1.05; in test [2] (first compound 0.005 µM) it was 0.916; in test [2] (first compound 0.01581 µM), 0.637; in test [2] (first compound 0.05 µM), 0.392. In addition, the relative viability in test [2] (first compound 0.1581 µM) was found to be 0.282; in test [2] (first compound 0.5 µM) it was 0.21.
